Key:
Assay in all cases: relative viability (nuclei count vs DMSO), 5 days (fraction); higher = more cells survive
Carboplatin + Pemetrexed = compound: C1CC(C1)(C(=O)O)C(=O)O.[NH2-].[NH2-].[Pt+2] [Carboplatin] + Nc1nc2[nH]cc(CCc3ccc(C(=O)N[C@@H](CCC(=O)O)C(=O)O)cc3)c2c(=O)[nH]1 [Pemetrexed] (partner 0.2 µM)
Method in brief: (§1)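 Relative viability is defined as nuclei in treated wells over nuclei in vehicle wells. Duplicate plates were run and medians reported. Lung cancer cell lines in 1536-well plates were dosed by pin tool one day after seeding, with one drug or with a fixed anchor-drug dose plus five library-drug doses (not always all listed) in √10 steps, and nuclei were counted after 5 days.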

Carboplatin + OSI-027 = compound: C1CC(C1)(C(=O)O)C(=O)O.[NH2-].[NH2-].[Pt+2] [Carboplatin] + COc1cccc2cc(-c3nc([C@H]4CC[C@H](C(=O)O)CC4)n4ncnc(N)c34)[nH]c12 [OSI-027] (partner 0.5 µM)
Method in brief: as §1

Carboplatin + Vorinostat = compound: C1CC(C1)(C(=O)O)C(=O)O.[NH2-].[NH2-].[Pt+2] [Carboplatin] + O=C(CCCCCCC(=O)Nc1ccccc1)NO [Vorinostat] (partner 1 µM)
Method in brief: as §1

GSK126 + Pictilisib = compound: CC[C@H](C)N1C=C(C2=C(C=C(C=C21)C3=CN=C(C=C3)N4CCNCC4)C(=O)NCC5=C(C=C(NC5=O)C)C)C [GSK126] + CS(=O)(=O)N1CCN(Cc2cc3nc(-c4cccc5[nH]ncc45)nc(N4CCOCC4)c3s2)CC1 [Pictilisib] (partner 1 µM)
Method in brief: as §1

Cell Line: LOU-NH91
- relative viability (Carboplatin + Pemetrexed; first compound 0.08 µM): 0.348
- relative viability (Carboplatin + Pemetrexed; first compound 0.253 µM): 0.378
- relative viability (Carboplatin + Pemetrexed; first compound 0.8 µM): 0.372
- relative viability (Carboplatin + Pemetrexed; first compound 2.53 µM): 0.381
- relative viability (Carboplatin + Pemetrexed; first compound 8 µM): 0.378
- relative viability (Carboplatin + OSI-027; first compound 0.08 µM): 0.811
- relative viability (Carboplatin + OSI-027; first compound 0.253 µM): 0.72
- relative viability (Carboplatin + OSI-027; first compound 0.8 µM): 0.75
- relative viability (Carboplatin + OSI-027; first compound 2.53 µM): 0.761
- relative viability (Carboplatin + OSI-027; first compound 8 µM): 0.73
- relative viability (Carboplatin + Vorinostat; first compound 0.08 µM): 1.03
- relative viability (Carboplatin + Vorinostat; first compound 0.253 µM): 0.937
- relative viability (Carboplatin + Vorinostat; first compound 0.8 µM): 0.949
- relative viability (Carboplatin + Vorinostat; first compound 2.53 µM): 0.894
- relative viability (Carboplatin + Vorinostat; first compound 8 µM): 0.734
- relative viability (GSK126 + Pictilisib; first compound 0.08 µM): 0.519
- relative viability (GSK126 + Pictilisib; first compound 0.253 µM): 0.501
- relative viability (GSK126 + Pictilisib; first compound 0.8 µM): 0.557
- relative viability (GSK126 + Pictilisib; first compound 2.53 µM): 0.524
- relative viability (GSK126 + Pictilisib; first compound 8 µM): 0.545

Cell Line: LU99A
- relative viability (Carboplatin + Pemetrexed; first compound 0.08 µM): 0.174
- relative viability (Carboplatin + Pemetrexed; first compound 0.253 µM): 0.157
- relative viability (Carboplatin + Pemetrexed; first compound 0.8 µM): 0.188
- relative viability (Carboplatin + Pemetrexed; first compound 2.53 µM): 0.18
- relative viability (Carboplatin + Pemetrexed; first compound 8 µM): 0.16
- relative viability (Carboplatin + OSI-027; first compound 0.08 µM): 0.307
- relative viability (Carboplatin + OSI-027; first compound 0.253 µM): 0.299
- relative viability (Carboplatin + OSI-027; first compound 0.8 µM): 0.269
- relative viability (Carboplatin + OSI-027; first compound 2.53 µM): 0.3
- relative viability (Carboplatin + OSI-027; first compound 8 µM): 0.283
- relative viability (Carboplatin + Vorinostat; first compound 0.08 µM): 0.507
- relative viability (Carboplatin + Vorinostat; first compound 0.253 µM): 0.577
- relative viability (Carboplatin + Vorinostat; first compound 0.8 µM): 0.485
- relative viability (Carboplatin + Vorinostat; first compound 2.53 µM): 0.418
- relative viability (Carboplatin + Vorinostat; first compound 8 µM): 0.292
- relative viability (GSK126 + Pictilisib; first compound 0.08 µM): 0.33
- relative viability (GSK126 + Pictilisib; first compound 0.253 µM): 0.32
- relative viability (GSK126 + Pictilisib; first compound 0.8 µM): 0.284
- relative viability (GSK126 + Pictilisib; first compound 2.53 µM): 0.342
- relative viability (GSK126 + Pictilisib; first compound 8 µM): 0.362

Cell Line: NCI-H522
- relative viability (Carboplatin + Pemetrexed; first compound 0.08 µM): 0.814
- relative viability (Carboplatin + Pemetrexed; first compound 0.253 µM): 0.924
- relative viability (Carboplatin + Pemetrexed; first compound 0.8 µM): 1.11
- relative viability (Carboplatin + Pemetrexed; first compound 2.53 µM): 1.01
- relative viability (Carboplatin + Pemetrexed; first compound 8 µM): 0.913
- relative viability (Carboplatin + OSI-027; first compound 0.08 µM): 0.741
- relative viability (Carboplatin + OSI-027; first compound 0.253 µM): 0.711
- relative viability (Carboplatin + OSI-027; first compound 0.8 µM): 0.567
- relative viability (Carboplatin + OSI-027; first compound 2.53 µM): 0.685
- relative viability (Carboplatin + OSI-027; first compound 8 µM): 0.7
- relative viability (Carboplatin + Vorinostat; first compound 0.08 µM): 0.882
- relative viability (Carboplatin + Vorinostat; first compound 0.253 µM): 0.904
- relative viability (Carboplatin + Vorinostat; first compound 0.8 µM): 0.944
- relative viability (Carboplatin + Vorinostat; first compound 2.53 µM): 0.968
- relative viability (Carboplatin + Vorinostat; first compound 8 µM): 0.669

Cell Line: NCI-H727
- relative viability (Carboplatin + OSI-027; first compound 0.08 µM): 0.732
- relative viability (Carboplatin + OSI-027; first compound 0.253 µM): 0.547
- relative viability (Carboplatin + OSI-027; first compound 0.8 µM): 0.555
- relative viability (Carboplatin + OSI-027; first compound 2.53 µM): 0.617
- relative viability (Carboplatin + OSI-027; first compound 8 µM): 0.551
- relative viability (Carboplatin + Vorinostat; first compound 0.08 µM): 1.38
- relative viability (Carboplatin + Vorinostat; first compound 0.253 µM): 1.15
- relative viability (Carboplatin + Vorinostat; first compound 0.8 µM): 1.17
- relative viability (Carboplatin + Vorinostat; first compound 2.53 µM): 1.03
- relative viability (Carboplatin + Vorinostat; first compound 8 µM): 0.831
- relative viability (GSK126 + Pictilisib; first compound 0.08 µM): 0.269
- relative viability (GSK126 + Pictilisib; first compound 0.253 µM): 0.367
- relative viability (GSK126 + Pictilisib; first compound 0.8 µM): 0.317
- relative viability (GSK126 + Pictilisib; first compound 2.53 µM): 0.367
- relative viability (GSK126 + Pictilisib; first compound 8 µM): 0.43

Cell Line: NCI-H1299
- relative viability (GSK126 + Pictilisib; first compound 0.08 µM): 0.877
- relative viability (GSK126 + Pictilisib; first compound 0.253 µM): 0.693
- relative viability (GSK126 + Pictilisib; first compound 0.8 µM): 0.74
- relative viability (GSK126 + Pictilisib; first compound 2.53 µM): 1.02
- relative viability (GSK126 + Pictilisib; first compound 8 µM): 0.576

Cell Line: NCI-H1563
- relative viability (Carboplatin + Pemetrexed; first compound 0.08 µM): 0.941
- relative viability (Carboplatin + Pemetrexed; first compound 0.253 µM): 0.751
- relative viability (Carboplatin + Pemetrexed; first compound 0.8 µM): 0.73
- relative viability (Carboplatin + Pemetrexed; first compound 2.53 µM): 0.755
- relative viability (Carboplatin + Pemetrexed; first compound 8 µM): 0.791
- relative viability (Carboplatin + OSI-027; first compound 0.08 µM): 0.821
- relative viability (Carboplatin + OSI-027; first compound 0.253 µM): 0.751
- relative viability (Carboplatin + OSI-027; first compound 0.8 µM): 0.773
- relative viability (Carboplatin + OSI-027; first compound 2.53 µM): 0.754
- relative viability (Carboplatin + OSI-027; first compound 8 µM): 0.775
- relative viability (GSK126 + Pictilisib; first compound 0.08 µM): 0.616
- relative viability (GSK126 + Pictilisib; first compound 0.253 µM): 0.715
- relative viability (GSK126 + Pictilisib; first compound 0.8 µM): 0.695
- relative viability (GSK126 + Pictilisib; first compound 2.53 µM): 0.648
- relative viability (GSK126 + Pictilisib; first compound 8 µM): 0.551

Cell Line: NCI-H1623
- relative viability (Carboplatin + OSI-027; first compound 0.08 µM): 0.481
- relative viability (Carboplatin + OSI-027; first compound 0.253 µM): 0.404
- relative viability (Carboplatin + OSI-027; first compound 0.8 µM): 0.455
- relative viability (Carboplatin + OSI-027; first compound 2.53 µM): 0.41
- relative viability (Carboplatin + OSI-027; first compound 8 µM): 0.385

Cell Line: NCI-H1648
- relative viability (Carboplatin + Pemetrexed; first compound 0.08 µM): 0.747
- relative viability (Carboplatin + Pemetrexed; first compound 0.253 µM): 0.737
- relative viability (Carboplatin + Pemetrexed; first compound 0.8 µM): 0.733
- relative viability (Carboplatin + Pemetrexed; first compound 2.53 µM): 0.587
- relative viability (Carboplatin + Pemetrexed; first compound 8 µM): 0.65
- relative viability (Carboplatin + OSI-027; first compound 0.08 µM): 0.238
- relative viability (Carboplatin + OSI-027; first compound 0.253 µM): 0.258
- relative viability (Carboplatin + OSI-027; first compound 0.8 µM): 0.247
- relative viability (Carboplatin + OSI-027; first compound 8 µM): 0.265
- relative viability (Carboplatin + Vorinostat; first compound 0.08 µM): 0.527
- relative viability (Carboplatin + Vorinostat; first compound 0.253 µM): 0.544
- relative viability (Carboplatin + Vorinostat; first compound 0.8 µM): 0.434
- relative viability (Carboplatin + Vorinostat; first compound 2.53 µM): 0.351
- relative viability (Carboplatin + Vorinostat; first compound 8 µM): 0.357

Cell Line: NCI-H1703
- relative viability (GSK126 + Pictilisib; first compound 0.08 µM): 0.247
- relative viability (GSK126 + Pictilisib; first compound 0.253 µM): 0.263
- relative viability (GSK126 + Pictilisib; first compound 0.8 µM): 0.235
- relative viability (GSK126 + Pictilisib; first compound 2.53 µM): 0.262
- relative viability (GSK126 + Pictilisib; first compound 8 µM): 0.231

Cell Line: NCI-H1792
- relative viability (Carboplatin + Pemetrexed; first compound 0.08 µM): 1.21
- relative viability (Carboplatin + Pemetrexed; first compound 0.253 µM): 0.75
- relative viability (Carboplatin + Pemetrexed; first compound 0.8 µM): 0.755
- relative viability (Carboplatin + Pemetrexed; first compound 2.53 µM): 0.811
- relative viability (Carboplatin + Pemetrexed; first compound 8 µM): 0.608
- relative viability (Carboplatin + OSI-027; first compound 0.08 µM): 0.724
- relative viability (Carboplatin + OSI-027; first compound 0.253 µM): 0.691
- relative viability (Carboplatin + OSI-027; first compound 0.8 µM): 0.824
- relative viability (Carboplatin + OSI-027; first compound 2.53 µM): 0.679
- relative viability (Carboplatin + OSI-027; first compound 8 µM): 0.566
- relative viability (GSK126 + Pictilisib; first compound 0.08 µM): 0.289
- relative viability (GSK126 + Pictilisib; first compound 0.253 µM): 0.272
- relative viability (GSK126 + Pictilisib; first compound 0.8 µM): 0.35
- relative viability (GSK126 + Pictilisib; first compound 2.53 µM): 0.3
- relative viability (GSK126 + Pictilisib; first compound 8 µM): 0.246

Cell Line: NCI-H2342
- relative viability (Carboplatin + Pemetrexed; first compound 0.08 µM): 0.786
- relative viability (Carboplatin + Pemetrexed; first compound 0.253 µM): 0.844
- relative viability (Carboplatin + Pemetrexed; first compound 0.8 µM): 0.791
- relative viability (Carboplatin + Pemetrexed; first compound 2.53 µM): 0.834
- relative viability (Carboplatin + Pemetrexed; first compound 8 µM): 0.762
- relative viability (Carboplatin + OSI-027; first compound 0.08 µM): 0.785
- relative viability (Carboplatin + OSI-027; first compound 0.253 µM): 0.731
- relative viability (Carboplatin + OSI-027; first compound 0.8 µM): 0.717
- relative viability (Carboplatin + OSI-027; first compound 2.53 µM): 0.534
- relative viability (Carboplatin + OSI-027; first compound 8 µM): 0.608
- relative viability (Carboplatin + Vorinostat; first compound 0.08 µM): 0.751
- relative viability (Carboplatin + Vorinostat; first compound 0.253 µM): 0.788
- relative viability (Carboplatin + Vorinostat; first compound 0.8 µM): 0.828
- relative viability (Carboplatin + Vorinostat; first compound 2.53 µM): 0.865
- relative viability (Carboplatin + Vorinostat; first compound 8 µM): 0.744

Cell Line: SW 900
- relative viability (Carboplatin + Pemetrexed; first compound 0.08 µM): 0.495
- relative viability (Carboplatin + Pemetrexed; first compound 0.253 µM): 0.468
- relative viability (Carboplatin + Pemetrexed; first compound 0.8 µM): 0.488
- relative viability (Carboplatin + Pemetrexed; first compound 2.53 µM): 0.525
- relative viability (Carboplatin + Pemetrexed; first compound 8 µM): 0.496
- relative viability (Carboplatin + OSI-027; first compound 0.08 µM): 0.726
- relative viability (Carboplatin + OSI-027; first compound 0.253 µM): 0.533
- relative viability (Carboplatin + OSI-027; first compound 0.8 µM): 0.49
- relative viability (Carboplatin + OSI-027; first compound 2.53 µM): 0.465
- relative viability (Carboplatin + OSI-027; first compound 8 µM): 0.412
- relative viability (Carboplatin + Vorinostat; first compound 0.08 µM): 0.476
- relative viability (Carboplatin + Vorinostat; first compound 0.253 µM): 0.522
- relative viability (Carboplatin + Vorinostat; first compound 0.8 µM): 0.501
- relative viability (Carboplatin + Vorinostat; first compound 2.53 µM): 0.528
- relative viability (Carboplatin + Vorinostat; first compound 8 µM): 0.519
